From PubChem BioAssay AID179 (DTP/NCI, 2004)
Active and inactive are the calls of the source.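 Rule for the calls: active = compounds giving half or more protection of infected cells from virus-caused growth loss, again on retest; inactive = the rest.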

System: CEM cells HIV-1 protection, formazan growth assay
Assay: NCI AIDS Antiviral Assay
Conditions: for IC50: measured here: growth of uninfected CEM cells
Outline: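 Screen of anti-HIV-1 activity in human CEM cells using a formazan-based growth measurement at five drug concentrations. Hits with 50% or greater protection were repeated, and confirmation required reproducible complete protection.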

| SMILES | EC50 [µM] | IC50 [µM] | outcome |
| --- | --- | --- | --- |
| Brc1cccc(C=NC23CC4CC(CC(C4)C2)C3)c1 | > 16.2 | > 16.2 |  |
| CC1Cc2c([nH]c3ccccc3c2=O)O1 (stereo unspecified) | > 1230 | 724 |  |
| C/C=C1\CN2CCc3c([nH]c4ccccc34)C2CC1CC(=O)N(C)C (stereo unspecified) | > 200 | > 200 |  |
| COc1ccc2[nH]c3c(c2c1)CC(=O)N1CCC[C@H](C1)CC31OCCCO1 | > 200 | 112 |  |
| CC(=O)[O-].COc1cccc(/C=N\[N-]C(=O)c2ccncc2)c1.[Cu+2].[OH3+].[OH3+].c1cnc2c(c1)ccc1cccnc12 | > 200 | 61.7 |  |
| CN(C)CC1CCCCC(CN(C)C)C1=O (stereo unspecified) |  |  | inactive |
| c1ccc(COc2cccc3cccnc23)cc1 | > 251 | 110 |  |
| COC(=O)c1cc(C)ccc1/C=C1\Cc2cccc(C)c2C1=O | > 200 |  |  |
| O=[N+]([O-])c1ccc(N=Nc2ccc(O)c3c(O)cc(S(=O)(=O)O)cc23)cc1S(=O)(=O)O | > 100 | > 100 |  |
| O=C1N[C@H]2c3c(Cl)sc(Cl)c3C(=O)[C@H]2O1 | > 20 | 0.955 |  |
| CCOc1ccccc1NC(=O)C(=O)C(/C(=N/N)C(=O)OC)c1nc2ccc([N+](=O)[O-])cc2[nH]c1=O (stereo unspecified) | > 263 | > 263 |  |
| COc1cc2ccc3c(c2cc1OC)CCc1cnoc1-3 | > 47.9 | > 47.9 |  |
| O=c1n(CC2CS2)c2ccccc2n1CC1CS1 (stereo unspecified) | > 339 | 6.61 |  |
| C[n+]1c2ccccc2n2c3ccccc3c(NCCCn3ccnc3)c(C#N)c21 | > 20 | 1.1 |  |
| COC(=O)C1OC2(CCCC3CC32)O[C@H]1C(=O)OC (stereo partly specified) |  |  | inactive |
| CC(=O)C(=Cc1cccc(Br)c1)C(C)=O | > 135 | 7.41 |  |
| S=C(S)N1CCN(c2ccc(Cl)c(Cl)c2)CC1 | > 200 | 26.9 |  |
| CC1(C)C=N[N+]2(C)C3C=CC(CC3)C12 (stereo unspecified) |  |  | inactive |
| OCCCSc1ccccc1SCCCO | > 52.5 | > 52.5 |  |
| CCn1c(=O)c(N=O)c(N)n(CC(C)O)c1=O (stereo unspecified) | > 200 | > 200 |  |
| O=c1/c(=C/c2ccccc2F)sc2nc3ccccc3n12 | > 1.82 | > 1.82 |  |
| Cc1cc(C)nc(Nc2nc3ccc([N+](=O)[O-])cc3[nH]2)n1 | > 871 | 407 |  |
| CC1=C(C(=O)OC2CC3CCC2(C)C3(C)C)C2Nc3ccccc3N(C)C2O1 (stereo unspecified) | > 200 | 6.46 |  |

| SMILES | EC50 [µM] | IC50 [µM] | outcome |
| --- | --- | --- | --- |
| CC12CC3CC/C(=N\O)C(C1)C3(N1CCOCC1)C/C2=N/O (stereo unspecified) | > 200 | > 200 |  |
| CCCCCCCCCCCC1OC[C@H]2O[C@@H](n3cc(C)c(=O)[nH]c3=O)C[C@H]2N1O (stereo partly specified) | > 200 | 21.9 |  |
| c1ccc(C2Nc3ccccc3C3OCCCC23)cc1 (stereo unspecified) | > 70.8 | > 70.8 |  |
| O=[N+]([O-])c1cccc(C2ON2C2CCCCC2)c1 (stereo unspecified) | > 89.1 | 5.01 |  |
| CCOC(=O)c1cn(C)nc1N/C(C)=C\C(=O)c1ccccc1 | > 200 | 75.9 |  |
| COC1(C)C(=O)NC(=O)N(C2C=CC(CO)O2)C1O (stereo unspecified) | 7.41 | 170 |  |
| CCOC(=O)C1(c2ccccc2)CCN(Cc2ccccc2)CC1 | > 100 | 52.5 |  |
| Cc1cc(S(=O)(=O)Nc2nncn2-c2ccc(Cl)cc2)c(S)cc1Cl |  |  | inactive |
| C1CSCCSCCS1 | > 39.8 | > 39.8 |  |
| COc1cc(OC)cc(OCc2nc3cc(C(F)(F)F)ccc3nc2-c2ccccc2)c1 | > 200 | 52.5 |  |
| CCCCCCCC(=O)OC[C@H](C[As](=O)(O)O)OC(=O)CCCCCCC | > 200 | 7.76 |  |
| CC1(C)CCCC2(C)C1CCC1(C)OC3=CC(=O)C(O)=CC3=CC12 (stereo unspecified) | > 30.2 | 2.82 |  |
| COc1ccc2c(c1O)-c1c(O)cccc1CCN(C)CC2 | > 200 | > 200 |  |
| Nc1nc(Cl)c(N=Nc2ccc(Cl)cc2)c(NCC2(CO)CC2)n1 | > 200 | > 200 |  |
| CN/N=C(/CCN1CCCC1)CC(c1ccccc1)c1c(O)c2ccccc2oc1=O (stereo unspecified) | > 93.3 | 74.1 |  |
| CCCCN(CCCC)C1=Nc2ccccc2-n2c(nnc2C(=O)OCC)C1 | > 200 | 41.7 |  |
| CCOC(=O)/C(=C\c1cccc(OC)c1)[Se]c1ccccc1 | > 14.5 | 7.59 |  |
| Cc1cc(=O)[nH]c(NN2C(Cl)C(=O)C2c2ccccc2O)n1 (stereo unspecified) | > 58.9 | 3.63 |  |
| N#Cc1sc2c(c1OC(=O)c1ccc(Cl)cc1Cl)c(=O)n(-c1ccccc1)c(=S)n2-c1ccccc1 | > 200 | 1.23 |  |
| O=c1c2cn[nH]c2nc2scc(-c3ccc(Cl)cc3)n12 | > 200 | > 200 |  |
| CC(=O)Oc1c2c(c(OC(C)=O)c3c1C(=O)c1ccccc1C3=O)CCC([C@H](C)O)=C2 |  |  | inactive |
| CCC1C2C=CC(CC2)N1S(=O)(=O)c1ccc(C)cc1 (stereo unspecified) | > 64.6 | 36.3 |  |
| CCCCCCCCCCCCCCC(O)C[N+](C)(CCO)CCO (stereo unspecified) | > 200 | 1.1 |  |
